Measurements reported in patent US5595730A, “Lactate dehydrogenase inhibitors in cosmetic compositions” (priority 1996, dated 1997).
Like-named read-outs stand apart in the source and are kept apart here.

Assays:
[1] = test system: Keratinocyte Lactate Dehydrogenase; experiment: Keratinocyte lactate dehydrogenase (LDH) inhibition, cell lysate; format: biochemical, human
Method: (§1) All reagents were purchased from Sigma Chemical Co., St. Louis, Mo., USA. Sigma procedure No. 500 was modified for our purposes. One mL of pyruvate (pH=7.5) substrate (Sigma […]-1) was added to a vial containing 1 mg NADH (Sigma 340-101). In a 96-well plate, the following components were added to each test well: 10 μl pyruvate/NADH mixture, and 10 μl cell lysate. For preparation cell lysates, neonatal human keratinocytes or fibroblasts (Clonetic Corp., San Diego, Calif.) were cultured in tissue culture plates (Corning, USA). Cells were scraped in PBS (pH=7.4) and this solution was used as a source of L-lactate dehydrogenase. If such cell lysate was not available, a commercial preparation of L-lactic dehydrogenase (E.C.1.1.1.27), Sigma L9889, from porcine heart could be used in place of the cell lysate. For positive control, the inhibitor was replaced with 10 μl of PBS. For blank determination, the lysate or enzyme was replaced with […]. After mixing, the plate was incubated for 30 minutes at 37° C. Then 20 μl of color reagent (Sigma 505-2) was added to each well. After 20 minutes at room temperature, 150 μl of 0.4N NaOH was added, and the plate was read for absorbance at 490 nm in a Dynatech MR 7000 Microplate Reader. To calculate % inhibition, the control activity (CA) was first determined by subtracting the absorbance of the positive control from the blank. Then the activity in the presence of the inhibitor (IA) was calculated by subtracting the appropriate absorbance from the blank. % Inhibition was then calculated as: ((CA-IA)/CA)*100.

[2] = test system: Normal human epidermal keratinocytes (NHEK); experiment: Keratinocyte proliferation (DNA content, fluorometric); format: cell-based; details: for activation at 313 µM / activation at 625 µM / activation at 1250 µM / activation at 2500 µM / activation at 5000 µM: Homo sapiens, NHEK, 72 h
Method: Normal human epidermal keratinocytes (NHEK) derived from neonatal foreskin were used for all experiments. Media were purchased from Clonetics Corp., San Diego, Calif. Cell stocks frozen in passage 2 were grown in Keratinocyte Growth Medium (KGM) and passaged when 70-80% confluent. Cells were seeded in 96 well plates (Corning) at a density of 7500 cells/well in KGM. After 24 hours, cells were rinsed and dosed with test compounds in 200 μl of Keratinocyte Basal Medium (KBM). Plates were incubated for three days at 37° C., 5% CO2. Cell proliferation was estimated by assaying for DNA content by a fluorometric method described by Rago et al. (Analytical Biochemistry, 191:31-34, 1990). Medium was removed and cells were rinsed with phosphate buffered saline solution. 100 μl of sterile distilled water was added to each well and plates were frozen at -70° C. for one and a half hours. Plates were thawed for one hour at which time 100 μl of a 20 ug/ml solution of Bisbenzimide H33258 fluorochrome (Calbiochem Corp., La Jolla, Calif.) was added to each well. The fluorochrome was prepared just prior to use in 10 mM Tris, 1 mM EDTA, 4M NaCI, pH 7.4. Plates were read in a Millipore Cytofluor fluorescent plate reader to quantify DNA (excitation 360 nm, emission 460 nm). Percent increase over control was calculated from blank-corrected readings as (treated-untreated)/(untreated)*100. Each data point in the Tables below represents a mean of 5 or 6 replicates.
The procedure of Example 2 was repeated except that various co-active ingredients were tested for their ability to stimulate keratinocyte proliferation.
The procedure of Example 2 was repeated to test the effect of combination of an LDH inhibitor with another carboxylic acid on keratinocyte proliferation.

[3] = test system: Fibroblast Lactate Dehydrogenase; experiment: Fibroblast lactate dehydrogenase (LDH) inhibition, cell lysate; format: biochemical, human
Method: as §1

[4] = Table 3, 0.313 mM, three days, read-out: Keratinocyte Proliferation (% increase over control)
[5] = Table 3, 0.625 mM, three days, read-out: Keratinocyte Proliferation (% increase over control)
[6] = Table 3, 1.25 mM, three days, read-out: Keratinocyte Proliferation (% increase over control)
[7] = Table 3, 2.5 mM, three days, read-out: Keratinocyte Proliferation (% increase over control)
[8] = Table 3, 5 mM, three days, read-out: Keratinocyte Proliferation (% increase over control)

O=C(O)C(=O)O [Oxalate]
Keratinocyte Lactate Dehydrogenase Inhibition (% Inhibition) ([1]; 0.625 mM): 39% | Keratinocyte Lactate Dehydrogenase Inhibition (% Inhibition) ([1]; 1.25 mM): 58% | Keratinocyte Lactate Dehydrogenase Inhibition (% Inhibition) ([1]; 2.5 mM): 76% | Keratinocyte Lactate Dehydrogenase Inhibition (% Inhibition) ([1]; 5 mM): 87% | activation at 313 µM ([2]; read-out: Keratinocyte Proliferation (% increase over control), Table 3, 0.313 mM, three days): 18% | activation at 625 µM ([2]; read-out: Keratinocyte Proliferation (% increase over control), Table 3, 0.625 mM, three days): 27% | activation at 1250 µM ([2]; read-out: Keratinocyte Proliferation (% increase over control), Table 3, 1.25 mM, three days): 2% | activation at 2500 µM ([2]; read-out: Keratinocyte Proliferation (% increase over control), Table 3, 2.5 mM, three days): 0% | activation at 5000 µM ([2]; read-out: Keratinocyte Proliferation (% increase over control), Table 3, 5 mM, three days): 0% | Fibroblast Lactate Dehydrogenase Inhibition (% Inhibition) ([3]; 0.625 mM): 54% | Fibroblast Lactate Dehydrogenase Inhibition (% Inhibition) ([3]; 1.25 mM): 71% | Fibroblast Lactate Dehydrogenase Inhibition (% Inhibition) ([3]; 2.5 mM): 85% | Fibroblast Lactate Dehydrogenase Inhibition (% Inhibition) ([3]; 5 mM): 89%

C[C@@H](O)C(=O)O [D-lactate]
Fibroblast Lactate Dehydrogenase Inhibition (% Inhibition) ([3]; 0.625 mM): 0% | Fibroblast Lactate Dehydrogenase Inhibition (% Inhibition) ([3]; 1.25 mM): 0% | Fibroblast Lactate Dehydrogenase Inhibition (% Inhibition) ([3]; 2.5 mM): 0% | Fibroblast Lactate Dehydrogenase Inhibition (% Inhibition) ([3]; 5 mM): 0%

O=C(O)C(=O)C(=O)O [Ketomalonate]
activation at 313 µM [2, 4]: 23% | activation at 625 µM [2, 5]: 10% | activation at 1250 µM [2, 6]: 0% | activation at 2500 µM [2, 7]: 0% | activation at 5000 µM [2, 8]: 0% | Keratinocyte proliferation, % Increase Over Control ([2]; Table 7, single agent alone, 0.156 mM): 20% | Keratinocyte proliferation, % Increase Over Control ([2]; Table 7, single agent alone, 0.313 mM): 48% | Keratinocyte proliferation, % Increase Over Control ([2]; Table 7, single agent alone, 0.625 mM): 50% | Keratinocyte proliferation, % Increase Over Control ([2]; Table 7, single agent alone, 1.25 mM): 59% | Keratinocyte proliferation, % Increase Over Control ([2]; Table 7, single agent alone, 2.5 mM): 45% | Keratinocyte proliferation, % Increase Over Control ([2]; Table 7, single agent alone, 5.0 mM): 20%

O=C(O)CC(=O)O [Malonate]
Fibroblast Lactate Dehydrogenase Inhibition (% Inhibition) ([3]; 0.625 mM): 0% | Fibroblast Lactate Dehydrogenase Inhibition (% Inhibition) ([3]; 1.25 mM): 0% | Fibroblast Lactate Dehydrogenase Inhibition (% Inhibition) ([3]; 2.5 mM): 0% | Fibroblast Lactate Dehydrogenase Inhibition (% Inhibition) ([3]; 5 mM): 0%

O=CC(=O)O [Glyoxylate]
activation at 313 µM [2, 4]: 33% | activation at 625 µM [2, 5]: 36% | activation at 1250 µM [2, 6]: 9% | activation at 2500 µM [2, 7]: 0% | activation at 5000 µM [2, 8]: 0%

O=C(O)CO [Glycolate]
Fibroblast Lactate Dehydrogenase Inhibition (% Inhibition) ([3]; 0.625 mM): 0% | Fibroblast Lactate Dehydrogenase Inhibition (% Inhibition) ([3]; 1.25 mM): 0% | Fibroblast Lactate Dehydrogenase Inhibition (% Inhibition) ([3]; 2.5 mM): 0% | Fibroblast Lactate Dehydrogenase Inhibition (% Inhibition) ([3]; 5 mM): 0%

c1cn[nH]c1 [Pyrazole]
Fibroblast Lactate Dehydrogenase Inhibition (% Inhibition) ([3]; 0.625 mM): 0% | Fibroblast Lactate Dehydrogenase Inhibition (% Inhibition) ([3]; 1.25 mM): 0% | Fibroblast Lactate Dehydrogenase Inhibition (% Inhibition) ([3]; 2.5 mM): 0% | Fibroblast Lactate Dehydrogenase Inhibition (% Inhibition) ([3]; 5 mM): 0%

O=C(O)C[C@H](O)C(=O)O [L-malate]
Fibroblast Lactate Dehydrogenase Inhibition (% Inhibition) ([3]; 0.625 mM): 0% | Fibroblast Lactate Dehydrogenase Inhibition (% Inhibition) ([3]; 1.25 mM): 0% | Fibroblast Lactate Dehydrogenase Inhibition (% Inhibition) ([3]; 2.5 mM): 0% | Fibroblast Lactate Dehydrogenase Inhibition (% Inhibition) ([3]; 5 mM): 0%

C[C@H](O)C(=O)O [L-lactate]
Fibroblast Lactate Dehydrogenase Inhibition (% Inhibition) ([3]; 0.625 mM): 0% | Fibroblast Lactate Dehydrogenase Inhibition (% Inhibition) ([3]; 1.25 mM): 0% | Fibroblast Lactate Dehydrogenase Inhibition (% Inhibition) ([3]; 2.5 mM): 0% | Fibroblast Lactate Dehydrogenase Inhibition (% Inhibition) ([3]; 5 mM): 0%

Methylpyrazole
Fibroblast Lactate Dehydrogenase Inhibition (% Inhibition) ([3]; 0.625 mM): 0% | Fibroblast Lactate Dehydrogenase Inhibition (% Inhibition) ([3]; 1.25 mM): 0% | Fibroblast Lactate Dehydrogenase Inhibition (% Inhibition) ([3]; 2.5 mM): 0% | Fibroblast Lactate Dehydrogenase Inhibition (% Inhibition) ([3]; 5 mM): 0%

O=C(O)C(O)C(=O)O [Tartronate]
activation at 313 µM [2, 4]: 37% | activation at 625 µM [2, 5]: 45% | activation at 1250 µM [2, 6]: 51% | activation at 2500 µM [2, 7]: 50% | activation at 5000 µM [2, 8]: 17% | Keratinocyte proliferation, % Increase Over Control ([2]; Table 8, single agent alone, 0.156 mM): 44% | Keratinocyte proliferation, % Increase Over Control ([2]; Table 8, single agent alone, 0.313 mM): 69% | Keratinocyte proliferation, % Increase Over Control ([2]; Table 8, single agent alone, 0.625 mM): 58% | Keratinocyte proliferation, % Increase Over Control ([2]; Table 8, single agent alone, 1.25 mM): 67% | Keratinocyte proliferation, % Increase Over Control ([2]; Table 8, single agent alone, 2.5 mM): 76% | Keratinocyte proliferation, % Increase Over Control ([2]; Table 8, single agent alone, 5.0 mM): 21%

NCC(=O)O [Glycinate]
Fibroblast Lactate Dehydrogenase Inhibition (% Inhibition) ([3]; 0.625 mM): 0% | Fibroblast Lactate Dehydrogenase Inhibition (% Inhibition) ([3]; 1.25 mM): 0% | Fibroblast Lactate Dehydrogenase Inhibition (% Inhibition) ([3]; 2.5 mM): 0% | Fibroblast Lactate Dehydrogenase Inhibition (% Inhibition) ([3]; 5 mM): 0%
